Tests used:
NCI-H522 = test: NCI-60 one-dose screen; format: cell-based; settings: Homo sapiens; NCI-H522, Non-small cell lung panel; single dose 10^−5 M; read-out: Growth inhibition %
Experimental: (§1) The newly synthesized compounds were screened for their in vitro anticancer activity at the Developmental Therapeutic Program (DTP) of the National Cancer Institute (NCI). The screening involved a panel of 60 human tumor cell lines consisting of 9 tissue types to screen for potential anti-cancer agents. The primary screening of submitted compounds was performed by testing a single dose (10^−5 M) in the full NCI-60 panel. The detailed % inhibition by the tested compounds against the 60 cell lines is shown in Tables S1–S3 in the Supporting Information.

HCC-2998 = test: NCI-60 one-dose screen; format: cell-based; settings: Homo sapiens; HCC-2998, Colon Cancer panel; single dose 10^−5 M; read-out: Growth inhibition %
Experimental: as §1

UACC-257 = test: NCI-60 one-dose screen; format: cell-based; settings: Homo sapiens; UACC-257, Melanoma panel; single dose 10^−5 M; read-out: Growth inhibition %
Experimental: as §1

T-47D = test: NCI-60 one-dose screen; format: cell-based; settings: Homo sapiens, T47D, Breast Cancer panel, single dose 10^−5 M, read-out: Growth inhibition %
Experimental: as §1

SF-295 = test: NCI-60 one-dose screen; format: cell-based; settings: Homo sapiens; SF-295, CNS Cancer panel; single dose 10^−5 M; read-out: Growth inhibition %
Experimental: as §1

NCI/ADR-RES = test: NCI-60 one-dose screen; format: cell-based; settings: Homo sapiens, Ovarian Cancer panel, single dose 10^−5 M, read-out: Growth inhibition %
Experimental: as §1

SR = test: NCI-60 one-dose screen; format: cell-based; settings: Homo sapiens, Leukemia panel, single dose 10^−5 M, read-out: Growth inhibition %
Experimental: as §1

M14 = test: NCI-60 one-dose screen; format: cell-based; settings: Homo sapiens; M14, Melanoma panel; single dose 10^−5 M; read-out: Growth inhibition %
Experimental: as §1

HCT-15 = test: NCI-60 one-dose screen; format: cell-based; settings: Homo sapiens; HCT-15, Colon Cancer panel; single dose 10^−5 M; read-out: Growth inhibition %
Experimental: as §1

SK-MEL-5 = test: NCI-60 one-dose screen; format: cell-based; settings: Homo sapiens; SK-MEL-5, Melanoma panel; single dose 10^−5 M; read-out: Growth inhibition %
Experimental: as §1

SK-MEL-28 = test: NCI-60 one-dose screen; format: cell-based; settings: Homo sapiens; SK-MEL-28, Melanoma panel; single dose 10^−5 M; read-out: Growth inhibition %
Experimental: as §1

SK-OV-3 = test: NCI-60 one-dose screen; format: cell-based; settings: Homo sapiens; SK-OV-3, Ovarian Cancer panel; single dose 10^−5 M; read-out: Growth inhibition %
Experimental: as §1

SNB-75 = test: NCI-60 one-dose screen; format: cell-based; settings: Homo sapiens; SNB-75, CNS Cancer panel; single dose 10^−5 M; read-out: Growth inhibition %
Experimental: as §1

K-562 = test: NCI-60 one-dose screen; format: cell-based; settings: Homo sapiens, K562; K-562, Leukemia panel; single dose 10^−5 M; read-out: Growth inhibition %
Experimental: as §1

ACHN = test: NCI-60 one-dose screen; format: cell-based; settings: Homo sapiens, Renal Cancer panel, single dose 10^−5 M, read-out: Growth inhibition %
Experimental: as §1

U251 = test: NCI-60 one-dose screen; format: cell-based; settings: Homo sapiens, U-251; U251, CNS Cancer panel; single dose 10^−5 M; read-out: Growth inhibition %
Experimental: as §1

CAKI-1 = test: NCI-60 one-dose screen; format: cell-based; settings: Homo sapiens; CAKI-1, Renal Cancer panel; single dose 10^−5 M; read-out: Growth inhibition %
Experimental: as §1

OVCAR-3 = test: NCI-60 one-dose screen; format: cell-based; settings: Homo sapiens; OVCAR-3, Ovarian Cancer panel; single dose 10^−5 M; read-out: Growth inhibition %
Experimental: as §1

SW-620 = test: NCI-60 one-dose screen; format: cell-based; settings: Homo sapiens; SW-620, Colon Cancer panel; single dose 10^−5 M; read-out: Growth inhibition %
Experimental: as §1

SK-MEL-2 = test: NCI-60 one-dose screen; format: cell-based; settings: Homo sapiens; SK-MEL-2, Melanoma panel; single dose 10^−5 M; read-out: Growth inhibition %
Experimental: as §1

MDA-MB-435 = test: NCI-60 one-dose screen; format: cell-based; settings: Homo sapiens; MDA-MB-435, Melanoma panel; single dose 10^−5 M; read-out: Growth inhibition %
Experimental: as §1

HOP-92 = test: NCI-60 one-dose screen; format: cell-based; settings: Homo sapiens; HOP-92, Non-small cell lung panel; single dose 10^−5 M; read-out: Growth inhibition %
Experimental: as §1

KM12 = test: NCI-60 one-dose screen; format: cell-based; settings: Homo sapiens; KM12, Colon Cancer panel; single dose 10^−5 M; read-out: Growth inhibition %
Experimental: as §1

SN12C = test: NCI-60 one-dose screen; format: cell-based; settings: Homo sapiens, Renal Cancer panel, single dose 10^−5 M, read-out: Growth inhibition %
Experimental: as §1

COLO 205 = test: NCI-60 one-dose screen; format: cell-based; settings: Homo sapiens; COLO 205, Colon Cancer panel; single dose 10^−5 M; read-out: Growth inhibition %
Experimental: as §1

SF-268 = test: NCI-60 one-dose screen; format: cell-based; settings: Homo sapiens; SF-268, CNS Cancer panel; single dose 10^−5 M; read-out: Growth inhibition %
IGROV1 = test: NCI-60 one-dose screen; format: cell-based; settings: Homo sapiens, IGROV-1; IGROV1, Ovarian Cancer panel; single dose 10^−5 M; read-out: Growth inhibition %
CCRF-CEM = test: NCI-60 one-dose screen; format: cell-based; settings: Homo sapiens, Leukemia panel, single dose 10^−5 M, read-out: Growth inhibition %
PDE5A = target: T1, PDE5A (Homo sapiens, UniProt O76074); test: Phosphodiesterase 5 HTRF cGMP assay; format: biochemical; settings: for IC50: means ± S.D. (n = 4), read-out: PDE5 IC50; for inhibition at 10 µM: read-out: PDE5 % Inhibition at 10 μM
T1 construct: purchased BPS Bioscience, San Diego, CA, USA
Experimental: All the synthesized acridine derivatives were tested for their in vitro ability to inhibit PDE5A at a screening dose of 10 µM.
The enzyme activities of phosphodiesterase 5 (PDE5) were measured using an HTRF cGMP assay kit (Cisbio, Codolet, France). […] Afterward, the HTRF reagent (cGMP-d2 and anti-cGMP-cryptate) was added for 1 h at 25 °C, and PDE activity was assayed on an HTRF reader (Tecan Infinite F200 Pro).

LOX IMVI = test: NCI-60 one-dose screen; format: cell-based; settings: Homo sapiens, Melanoma panel, single dose 10^−5 M, read-out: Growth inhibition %

Compound	inhibition at 10 µM (NCI-H522)	inhibition at 10 µM (HCC-2998)	inhibition at 10 µM (UACC-257)	inhibition at 10 µM (T-47D)	inhibition at 10 µM (SF-295)	inhibition at 10 µM (NCI/ADR-RES)	inhibition at 10 µM (SR)	inhibition at 10 µM (M14)	inhibition at 10 µM (HCT-15)	inhibition at 10 µM (SK-MEL-5)	inhibition at 10 µM (SK-MEL-28)	inhibition at 10 µM (SK-OV-3)	inhibition at 10 µM (SNB-75)	inhibition at 10 µM (K-562)	inhibition at 10 µM (ACHN)	inhibition at 10 µM (U251)	inhibition at 10 µM (CAKI-1)	inhibition at 10 µM (OVCAR-3)	inhibition at 10 µM (SW-620)	inhibition at 10 µM (SK-MEL-2)	other results
c1ccc(CNc2c3ccccc3nc3ccccc23)cc1 [Compound 1, Acridin-9-yl-benzyl-amine]	43.2%	61.8%	47.3%	62.2%	62.4%	62.4%	88.3%	67.7%	75.4%	36.9%	14.5%	53.3%	35.6%	87.7%	81.9%	61.5%	66.9%	48.3%	75.5%	39.2%	inhibition at 10 µM (MDA-MB-435): 57.2%; inhibition at 10 µM (HOP-92): 74.1%; inhibition at 10 µM (KM12): 69.5%; inhibition at 10 µM (SN12C): 62.5%; inhibition at 10 µM (COLO 205): 92.7%; inhibition at 10 µM (SF-268): 37.4%; inhibition at 10 µM (IGROV1): 70.2%; inhibition at 10 µM (CCRF-CEM): 61%; IC50 (PDE5A): 9.33 ± 4.62 µM; inhibition at 10 µM (PDE5A): 52.2 ± 5.87%; inhibition at 10 µM (LOX IMVI): 80.2%
Cc1ccccc1CNc1c2ccccc2nc2ccccc12 [Compound 2, Acridin-9-yl-(2-methylbenzyl)-amine]	50%	83.8%	67.3%	75.5%	70.5%	75.2%	97.3%	86.8%	85.4%	66.1%	41.7%	59.2%	54.7%	95%	88.4%	78.7%	74.9%	68.7%	86.2%	59.9%	inhibition at 10 µM (MDA-MB-435): 76.1%; inhibition at 10 µM (HOP-92): 101%; inhibition at 10 µM (KM12): 83.1%; inhibition at 10 µM (SN12C): 75.7%; inhibition at 10 µM (COLO 205): 119%; inhibition at 10 µM (SF-268): 57.1%; inhibition at 10 µM (IGROV1): 85.2%; inhibition at 10 µM (CCRF-CEM): 82.4%; IC50 (PDE5A): 9.87 ± 2.06 µM; inhibition at 10 µM (PDE5A): 50.4 ± 3.68%; inhibition at 10 µM (LOX IMVI): 90.9%

— publication PMC9866191, “Novel 9-Benzylaminoacridine Derivatives as Dual Inhibitors of Phosphodiesterase 5 and Topoisomerase II for the Treatment of Colon Cancer” (Molecules, 2023)
